# Measurements: the OPERA property sets (Mansouri et al. 2018)
# Conditions: for log10 biotransformation half-life (days) / log10 BCF: fish
Compound,melting point [°C],boiling point [°C],further results
CCCCCCCCOC(=O)CCCCC(=O)OCCCCCCCC,-70,,log10 Henry constant (atm·m³/mol): -6.36; log10 vapour pressure (mmHg): -6.07
CC(C)CC(C)(C#N)N=NC(C)(C#N)CC(C)C (stereo not drawn),,,ready biodegradability: not readily biodegradable
CCCCCCC(C)OC(=O)COc1nc(F)c(Cl)c(N)c1Cl (stereo not drawn),59,,log10 vapour pressure (mmHg): -8; log10 biotransformation half-life (days): -0.61
CCCOC(=O)c1ccccc1O,97,239,
CCOC(=O)CC(C(C)=O)C(=O)OCC (stereo not drawn),,255,
NCCC(=O)N[C@@H](Cc1c[nH]cn1)C(=O)O,260,,
Cc1c2ccccc2cc2ccccc12,81.5,,log10 Koc (L/kg): 4.81; log10 biodegradation half-life (days): 2.42; log10 vapour pressure (mmHg): -4.4; log10 biotransformation half-life (days): 0.23
COc1cc(C)oc(=O)c1,86,,
CC(C)C(C)c1ccccc1 (stereo not drawn),,187,
CCc1ccccc1CC,-31.2,184,log10 vapour pressure (mmHg): 0.0212; ready biodegradability: not readily biodegradable
COc1ccc2c(c1OC)C(=O)OC2,102,,
O=C[C@H](O)[C@@H](O)[C@@H](O)[C@H](O)C(=O)O,166,,
CC(C)C[Si](Cl)(Cl)Cl,,143,
CCCCCCCCCCCCCCCCCC(=O)OCCCCCCCCCCCCCCCC,57,,
O=[N+]([O-])c1ccc(Cl)c(S(=O)(=O)[O][Na])c1,,,log10 BCF: 0.48
Nc1cc(Cl)cc(Cl)c1,52,261,log10 Koc (L/kg): 2.49; ready biodegradability: not readily biodegradable
C=CC[Si](C)(C)C,,86,
COCCOc1ccccc1S(=O)(=O)N=C(O)N=c1nc(OC)[nH]c(OC)n1,130,,
CC(C)(C)c1cccc([N+](=O)[O-])c1,2,254,
CC(C)(C#N)C#N,31.5,170,log10 vapour pressure (mmHg): 0.16
N#Cc1ccccc1[N+](=O)[O-],108,,
CC12CCC(C(Cl)C1=O)C2(C)C (stereo not drawn),106,,
Cl.NCCc1ccccc1,218,,
O=C(Cn1ccnc1[N+](=O)[O-])NCc1ccccc1,189,,
Cc1cccc(F)c1,-87,115,log10 vapour pressure (mmHg): 1.34

Compound,melting point [°C],boiling point [°C],further results
Cc1cc(C)c(N(C)C)c(C)c1,,214,
C1CC[C@@H]2NCCC[C@@H]2C1,-40,206,
C1=CCNCC1,-48,108,
COc1ccc(Nc2ccc(N)cc2)cc1,102,,
CC#CCCCCC,-61.6,138,log10 vapour pressure (mmHg): 0.875
C=CCc1cc(Cl)ccc1O,48,,
c1ccc2nn(C3CCCCC3)nc2c1,46.5,,
Nc1ccc(N)nc1,110,,ready biodegradability: readily biodegradable
CCCCCC=O,-56,131,log10 Henry constant (atm·m³/mol): -3.67; log10 Koa: 4.41; log10 vapour pressure (mmHg): 1.05; ready biodegradability: readily biodegradable
CCOC(=O)c1ccccc1O,1,232,log10 vapour pressure (mmHg): -1.07; ready biodegradability: readily biodegradable
O=C(O)[C@H](O)[C@@H](O)C(=O)O (racemic),174,,
CCC(=O)OCCOC(=O)CC,,211,
O=C(O)COc1cc(Cl)c(Cl)cc1Cl,153,,log10 Koc (L/kg): 1.99
Cc1ccc(/N=N/c2c(O)ccc3ccccc23)c(C)c1,166,,
O=[N+]([O-])c1cccc(S(=O)(=O)[O][Na])c1,,,log10 BCF: 0.7
ClCC(Cl)C(Cl)Cl (stereo not drawn),,180,
Fc1c(F)c(F)c(-c2c(F)c(F)c(F)c(F)c2F)c(F)c1F,67.5,206,
COc1cc2c(cc1O)[C@H](Cc1ccc(O)cc1)NCC2,220,,
CC(C)CC#N,-101,128,
Cc1cccc(I)c1O,15.5,,
COC,-142,-24.8,log10 Koa: 1.37; log10 vapour pressure (mmHg): 3.65; ready biodegradability: not readily biodegradable
CCCCCCCCC=CCCCCCCCC(=O)OCCCC,,,ready biodegradability: readily biodegradable
O=C(O)c1cccc(Cl)n1,,,log10 Koc (L/kg): 1.37; ready biodegradability: not readily biodegradable
S=C=Nc1ccc(Br)cc1,60.5,,
CCOCC,-116,34.6,log10 Henry constant (atm·m³/mol): -2.91; log10 Koa: 2.19; log10 vapour pressure (mmHg): 2.73; ready biodegradability: not readily biodegradable; log10 BCF: 0.73; log10 biotransformation half-life (days): -0.7
